# According to publication PMC4685510, “A Cell Biologist’s Field Guide to Aurora Kinase Inhibitors” (Frontiers in Oncology, 2015):
# Key:
# Experiment in all cases: biochemical
# Assay type in all cases: biochemical
# [1] = biological target: 363 human kinases (including Aurora A/B/C) (Homo sapiens, UniProt P08581); details: c-MET, [ATP] 30 µM; for remaining activity at 0.1 µM: 100 nM; for remaining activity at 0.1 µM / remaining activity at 0.5 µM: read-out: % Enzyme Activity (relative to DMSO controls)
# Excerpt: (§1) However, the Aurora A/B selectivity ratios derived from our in vitro and in vivo data can be compared to prioritize inhibitors.
# [2] = biological target: 363 human kinases (including Aurora A/B/C) (Homo sapiens, UniProt P50613); details: CDK7/cyclin H, [ATP] 50 µM; for remaining activity at 0.1 µM: 100 nM; for remaining activity at 0.1 µM / remaining activity at 0.5 µM: read-out: % Enzyme Activity (relative to DMSO controls)
# Sequence of 363 human kinases (including Aurora A/B/C) (Homo sapiens, UniProt P50613) (P50613 whole entry): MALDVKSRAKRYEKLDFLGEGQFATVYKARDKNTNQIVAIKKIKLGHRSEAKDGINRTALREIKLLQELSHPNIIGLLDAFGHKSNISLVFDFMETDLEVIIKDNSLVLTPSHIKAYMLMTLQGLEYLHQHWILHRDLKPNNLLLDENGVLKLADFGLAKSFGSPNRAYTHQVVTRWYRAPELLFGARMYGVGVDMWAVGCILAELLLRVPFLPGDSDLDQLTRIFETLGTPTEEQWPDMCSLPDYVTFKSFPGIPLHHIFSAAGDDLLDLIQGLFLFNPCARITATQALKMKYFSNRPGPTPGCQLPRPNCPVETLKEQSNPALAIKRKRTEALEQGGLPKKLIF
# Excerpt: as §1
# [3] = biological target: 363 human kinases (including Aurora A/B/C) (Homo sapiens, UniProt P14616); details: IRR/INSRR; for remaining activity at 0.1 µM: 100 nM; for remaining activity at 0.1 µM / remaining activity at 0.5 µM: read-out: % Enzyme Activity (relative to DMSO controls)
# Excerpt: as §1
# [4] = biological target: 363 human kinases (including Aurora A/B/C) (Homo sapiens, UniProt Q06187); details: BTK, [ATP] 50 µM; for remaining activity at 0.1 µM: 100 nM; for remaining activity at 0.1 µM / remaining activity at 0.5 µM: read-out: % Enzyme Activity (relative to DMSO controls)
# Sequence of 363 human kinases (including Aurora A/B/C) (Homo sapiens, UniProt Q06187) (Q06187 whole entry): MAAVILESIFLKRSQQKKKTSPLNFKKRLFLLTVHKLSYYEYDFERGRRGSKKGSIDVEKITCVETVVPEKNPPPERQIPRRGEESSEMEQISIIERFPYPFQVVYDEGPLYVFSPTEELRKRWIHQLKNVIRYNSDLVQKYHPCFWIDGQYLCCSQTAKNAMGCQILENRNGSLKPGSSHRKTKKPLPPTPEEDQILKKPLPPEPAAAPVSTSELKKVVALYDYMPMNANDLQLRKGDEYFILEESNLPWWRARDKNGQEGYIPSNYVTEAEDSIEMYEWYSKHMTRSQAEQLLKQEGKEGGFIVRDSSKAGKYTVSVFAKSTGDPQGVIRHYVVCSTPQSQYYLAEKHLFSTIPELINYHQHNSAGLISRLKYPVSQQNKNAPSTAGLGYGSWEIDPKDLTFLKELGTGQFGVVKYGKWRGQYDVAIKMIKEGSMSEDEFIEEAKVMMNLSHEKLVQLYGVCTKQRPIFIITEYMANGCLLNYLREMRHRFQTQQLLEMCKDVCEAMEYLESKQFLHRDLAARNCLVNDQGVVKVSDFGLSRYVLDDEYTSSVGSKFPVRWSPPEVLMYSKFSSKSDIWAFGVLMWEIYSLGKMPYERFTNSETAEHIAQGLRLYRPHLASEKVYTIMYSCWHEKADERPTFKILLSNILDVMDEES
# Excerpt: as §1
# [5] = biological target: 363 human kinases (including Aurora A/B/C) (Homo sapiens, UniProt O75116); details: ROCK2; for remaining activity at 0.1 µM: 100 nM; for remaining activity at 0.1 µM / remaining activity at 0.5 µM: read-out: % Enzyme Activity (relative to DMSO controls)
# Sequence of 363 human kinases (including Aurora A/B/C) (Homo sapiens, UniProt O75116) (O75116 whole entry): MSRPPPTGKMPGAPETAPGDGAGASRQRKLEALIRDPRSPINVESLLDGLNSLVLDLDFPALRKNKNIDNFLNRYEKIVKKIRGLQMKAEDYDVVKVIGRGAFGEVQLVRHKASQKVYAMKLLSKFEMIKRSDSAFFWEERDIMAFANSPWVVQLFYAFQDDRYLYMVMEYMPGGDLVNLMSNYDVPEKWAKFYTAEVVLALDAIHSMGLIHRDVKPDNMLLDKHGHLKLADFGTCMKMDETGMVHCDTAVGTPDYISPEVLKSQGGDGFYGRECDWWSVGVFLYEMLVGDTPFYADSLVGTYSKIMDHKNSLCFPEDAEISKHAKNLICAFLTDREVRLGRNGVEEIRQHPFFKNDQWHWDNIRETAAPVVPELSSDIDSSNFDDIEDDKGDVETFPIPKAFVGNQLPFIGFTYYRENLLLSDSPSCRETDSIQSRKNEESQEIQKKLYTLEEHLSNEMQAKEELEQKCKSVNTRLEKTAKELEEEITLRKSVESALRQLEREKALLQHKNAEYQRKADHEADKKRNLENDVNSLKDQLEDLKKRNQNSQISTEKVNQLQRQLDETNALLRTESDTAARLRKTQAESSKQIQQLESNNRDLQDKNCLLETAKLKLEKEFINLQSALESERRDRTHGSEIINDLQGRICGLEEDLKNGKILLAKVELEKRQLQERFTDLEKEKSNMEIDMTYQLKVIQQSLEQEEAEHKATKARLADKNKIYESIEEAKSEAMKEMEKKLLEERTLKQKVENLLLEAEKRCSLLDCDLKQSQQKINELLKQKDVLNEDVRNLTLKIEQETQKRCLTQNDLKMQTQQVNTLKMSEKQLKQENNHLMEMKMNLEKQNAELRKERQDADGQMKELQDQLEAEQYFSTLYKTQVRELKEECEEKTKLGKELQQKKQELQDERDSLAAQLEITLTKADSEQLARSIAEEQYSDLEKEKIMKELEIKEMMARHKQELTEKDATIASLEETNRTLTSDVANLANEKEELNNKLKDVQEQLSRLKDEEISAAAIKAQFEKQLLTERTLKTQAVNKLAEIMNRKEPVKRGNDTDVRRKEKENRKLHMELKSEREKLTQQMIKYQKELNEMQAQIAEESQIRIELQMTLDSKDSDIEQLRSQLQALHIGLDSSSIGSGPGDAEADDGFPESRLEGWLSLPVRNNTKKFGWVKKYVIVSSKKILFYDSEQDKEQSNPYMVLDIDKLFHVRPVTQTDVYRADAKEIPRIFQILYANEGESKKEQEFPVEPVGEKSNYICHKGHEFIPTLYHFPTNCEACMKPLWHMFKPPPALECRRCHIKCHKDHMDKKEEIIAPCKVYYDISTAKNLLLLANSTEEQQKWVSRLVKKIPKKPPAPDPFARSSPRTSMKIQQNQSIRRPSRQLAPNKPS
# Excerpt: as §1
# [6] = biological target: 363 human kinases (including Aurora A/B/C) (Homo sapiens, UniProt Q07002); details: CDK18/cyclin Y (PCTK3), [ATP] 50 µM; for remaining activity at 0.1 µM: 100 nM; for remaining activity at 0.1 µM / remaining activity at 0.5 µM: read-out: % Enzyme Activity (relative to DMSO controls)
# Sequence of 363 human kinases (including Aurora A/B/C) (Homo sapiens, UniProt Q07002) (Q07002 whole entry): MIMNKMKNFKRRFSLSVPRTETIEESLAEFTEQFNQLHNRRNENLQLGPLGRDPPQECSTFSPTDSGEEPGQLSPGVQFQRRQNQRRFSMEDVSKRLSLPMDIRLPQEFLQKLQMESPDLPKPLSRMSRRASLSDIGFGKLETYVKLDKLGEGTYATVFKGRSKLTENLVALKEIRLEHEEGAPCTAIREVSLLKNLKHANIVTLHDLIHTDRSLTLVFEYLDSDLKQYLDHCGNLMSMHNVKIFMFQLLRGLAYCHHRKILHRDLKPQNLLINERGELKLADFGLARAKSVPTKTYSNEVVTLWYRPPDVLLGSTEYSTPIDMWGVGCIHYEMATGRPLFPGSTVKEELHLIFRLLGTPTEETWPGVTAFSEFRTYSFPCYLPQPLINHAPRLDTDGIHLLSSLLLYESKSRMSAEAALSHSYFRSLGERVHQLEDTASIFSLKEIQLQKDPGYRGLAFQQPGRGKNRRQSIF
# Excerpt: as §1
# [7] = biological target: 363 human kinases (including Aurora A/B/C) (Homo sapiens, UniProt Q9H1R3); details: MLCK2/MYLK2; for remaining activity at 0.1 µM: 100 nM; for remaining activity at 0.1 µM / remaining activity at 0.5 µM: read-out: % Enzyme Activity (relative to DMSO controls)
# Sequence of 363 human kinases (including Aurora A/B/C) (Homo sapiens, UniProt Q9H1R3) (Q9H1R3 whole entry): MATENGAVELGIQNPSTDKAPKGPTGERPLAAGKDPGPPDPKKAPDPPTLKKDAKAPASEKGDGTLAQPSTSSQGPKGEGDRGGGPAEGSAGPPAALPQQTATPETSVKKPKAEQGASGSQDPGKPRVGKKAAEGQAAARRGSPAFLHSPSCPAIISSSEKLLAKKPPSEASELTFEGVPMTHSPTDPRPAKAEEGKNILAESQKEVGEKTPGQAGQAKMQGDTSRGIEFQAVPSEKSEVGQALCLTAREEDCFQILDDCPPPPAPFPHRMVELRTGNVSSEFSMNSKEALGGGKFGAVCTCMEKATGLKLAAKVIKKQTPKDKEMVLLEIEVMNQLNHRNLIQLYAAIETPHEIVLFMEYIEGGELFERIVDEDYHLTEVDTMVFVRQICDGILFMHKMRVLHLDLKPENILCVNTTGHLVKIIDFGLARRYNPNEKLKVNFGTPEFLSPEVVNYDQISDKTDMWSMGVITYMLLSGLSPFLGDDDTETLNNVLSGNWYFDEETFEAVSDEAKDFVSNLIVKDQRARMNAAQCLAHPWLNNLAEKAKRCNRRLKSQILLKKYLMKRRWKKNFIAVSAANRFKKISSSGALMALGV
# Excerpt: as §1
# [8] = biological target: T1, 363 human kinases (including Aurora A/B/C) (Homo sapiens, UniProt Q9NRH2); details: SNRK; for remaining activity at 0.1 µM: 100 nM; for remaining activity at 0.1 µM / remaining activity at 0.5 µM: read-out: % Enzyme Activity (relative to DMSO controls)
# T1 sequence (Q9NRH2 1-765): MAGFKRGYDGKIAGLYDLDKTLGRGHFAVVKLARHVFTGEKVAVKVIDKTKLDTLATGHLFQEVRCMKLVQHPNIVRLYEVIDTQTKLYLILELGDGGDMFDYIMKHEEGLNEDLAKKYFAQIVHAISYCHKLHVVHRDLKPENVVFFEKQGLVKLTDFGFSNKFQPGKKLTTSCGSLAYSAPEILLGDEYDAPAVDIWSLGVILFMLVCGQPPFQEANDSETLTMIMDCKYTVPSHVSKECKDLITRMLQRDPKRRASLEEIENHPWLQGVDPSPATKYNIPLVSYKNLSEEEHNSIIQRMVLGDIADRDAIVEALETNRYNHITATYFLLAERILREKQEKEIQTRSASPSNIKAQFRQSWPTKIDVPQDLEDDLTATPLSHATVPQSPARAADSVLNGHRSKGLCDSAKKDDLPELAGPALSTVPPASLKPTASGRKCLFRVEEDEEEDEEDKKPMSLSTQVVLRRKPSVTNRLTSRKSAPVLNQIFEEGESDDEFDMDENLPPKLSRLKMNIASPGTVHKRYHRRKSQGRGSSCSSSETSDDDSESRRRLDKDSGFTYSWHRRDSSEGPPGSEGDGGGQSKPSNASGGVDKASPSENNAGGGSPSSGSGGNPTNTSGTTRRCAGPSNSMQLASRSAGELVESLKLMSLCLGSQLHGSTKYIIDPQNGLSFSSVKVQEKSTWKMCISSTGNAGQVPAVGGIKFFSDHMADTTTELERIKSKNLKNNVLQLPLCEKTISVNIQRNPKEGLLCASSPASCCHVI
# Excerpt: as §1
# [9] = biological target: 363 human kinases (including Aurora A/B/C) (Homo sapiens, UniProt Q14680); details: MELK; for remaining activity at 0.1 µM: 100 nM; for remaining activity at 0.1 µM / remaining activity at 0.5 µM: read-out: % Enzyme Activity (relative to DMSO controls)
# Sequence of 363 human kinases (including Aurora A/B/C) (Homo sapiens, UniProt Q14680) (Q14680 whole entry): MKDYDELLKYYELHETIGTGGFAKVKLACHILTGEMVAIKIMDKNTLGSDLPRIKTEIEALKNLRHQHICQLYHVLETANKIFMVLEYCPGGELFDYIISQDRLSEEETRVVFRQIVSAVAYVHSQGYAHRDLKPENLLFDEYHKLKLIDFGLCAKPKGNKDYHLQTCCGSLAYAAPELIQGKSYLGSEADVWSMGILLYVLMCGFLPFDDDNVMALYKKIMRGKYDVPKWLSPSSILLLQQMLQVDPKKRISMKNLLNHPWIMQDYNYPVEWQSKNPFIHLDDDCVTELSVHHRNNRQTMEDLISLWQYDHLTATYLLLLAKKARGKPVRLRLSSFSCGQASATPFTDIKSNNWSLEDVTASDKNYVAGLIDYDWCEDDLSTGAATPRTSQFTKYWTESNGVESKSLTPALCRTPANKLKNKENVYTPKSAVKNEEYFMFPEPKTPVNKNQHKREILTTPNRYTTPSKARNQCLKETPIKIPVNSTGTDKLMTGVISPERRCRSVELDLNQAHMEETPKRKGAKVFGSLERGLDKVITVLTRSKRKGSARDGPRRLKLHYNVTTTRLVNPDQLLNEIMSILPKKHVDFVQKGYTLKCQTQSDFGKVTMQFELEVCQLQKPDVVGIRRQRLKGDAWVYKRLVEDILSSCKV
# Excerpt: as §1
# [10] = biological target: T2, 363 human kinases (including Aurora A/B/C) (Homo sapiens, UniProt Q12866); details: c-MER, [ATP] 30 µM; for remaining activity at 0.1 µM: 100 nM; for remaining activity at 0.1 µM / remaining activity at 0.5 µM: read-out: % Enzyme Activity (relative to DMSO controls)
# T2 sequence (Q12866 21-999): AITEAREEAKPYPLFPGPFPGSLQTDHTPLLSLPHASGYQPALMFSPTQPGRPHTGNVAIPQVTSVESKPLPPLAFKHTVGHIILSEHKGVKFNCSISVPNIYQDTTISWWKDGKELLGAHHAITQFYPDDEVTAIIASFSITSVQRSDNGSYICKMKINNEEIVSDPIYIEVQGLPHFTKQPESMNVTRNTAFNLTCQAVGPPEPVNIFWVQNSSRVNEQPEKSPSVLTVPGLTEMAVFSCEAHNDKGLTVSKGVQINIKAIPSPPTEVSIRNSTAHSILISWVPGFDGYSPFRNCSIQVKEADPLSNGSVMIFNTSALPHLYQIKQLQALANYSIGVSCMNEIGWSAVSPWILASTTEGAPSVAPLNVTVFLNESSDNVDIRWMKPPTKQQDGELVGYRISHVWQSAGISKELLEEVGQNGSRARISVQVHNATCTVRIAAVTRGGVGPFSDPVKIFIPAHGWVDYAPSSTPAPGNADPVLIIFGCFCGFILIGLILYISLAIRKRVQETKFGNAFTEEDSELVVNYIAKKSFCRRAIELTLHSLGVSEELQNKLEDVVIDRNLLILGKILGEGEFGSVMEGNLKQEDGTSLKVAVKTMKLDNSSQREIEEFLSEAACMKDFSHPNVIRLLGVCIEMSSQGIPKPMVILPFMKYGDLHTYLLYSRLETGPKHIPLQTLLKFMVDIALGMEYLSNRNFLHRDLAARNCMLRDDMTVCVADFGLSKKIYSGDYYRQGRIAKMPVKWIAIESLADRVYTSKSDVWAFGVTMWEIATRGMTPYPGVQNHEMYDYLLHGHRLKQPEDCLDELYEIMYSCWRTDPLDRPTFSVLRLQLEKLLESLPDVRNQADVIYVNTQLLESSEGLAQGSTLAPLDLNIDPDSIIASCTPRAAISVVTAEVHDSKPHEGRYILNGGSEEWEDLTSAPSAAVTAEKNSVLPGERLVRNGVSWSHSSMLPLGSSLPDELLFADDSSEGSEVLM
# Excerpt: as §1
SMILES,remaining activity at 0.1 µM [1] [%],remaining activity at 0.1 µM [2] [%],remaining activity at 0.1 µM [3] [%],remaining activity at 0.1 µM [4] [%],remaining activity at 0.1 µM [5] [%],remaining activity at 0.1 µM [6] [%],remaining activity at 0.1 µM [7] [%],remaining activity at 0.1 µM [8] [%],remaining activity at 0.1 µM [9] [%],remaining activity at 0.1 µM [10] [%],remaining activity at 0.5 µM ([1]; 500 nM) [%],remaining activity at 0.5 µM ([2]; 500 nM) [%],remaining activity at 0.5 µM ([3]; 500 nM) [%],remaining activity at 0.5 µM ([4]; 500 nM) [%],remaining activity at 0.5 µM ([5]; 500 nM) [%],remaining activity at 0.5 µM ([6]; 500 nM) [%],remaining activity at 0.5 µM ([7]; 500 nM) [%],remaining activity at 0.5 µM ([8]; 500 nM) [%],remaining activity at 0.5 µM ([9]; 500 nM) [%],remaining activity at 0.5 µM ([10]; 500 nM) [%],also measured
CCn1cc(-c2ccnc3[nH]c(-c4cccc(CN(C)C)c4)cc23)c(-c2ccc(NC(=O)N(C)C)cc2)n1 [GSK1070916],84.8,109,99.5,102,71.8,107,96.2,89.8,95.7,81.6,–,–,–,–,–,–,–,–,–,–,–
O=C(O)[C@]1(Cc2cccc(Nc3nccs3)n2)CC[C@@H](Oc2cccc(Cl)c2F)CC1 [MK-5108],74.5,95.9,81.7,69.8,99.6,85.9,102,95.3,109,78.7,50.3,112,46.3,30.2,98.2,108,97.8,88.9,112,46.1,–
O=C(c1cccc(Cl)c1F)N1CCN(Cc2cccc(Nc3nccs3)n2)CC1 [MK-8745],–,–,–,–,–,–,–,–,–,–,77.2,110,76.4,94.5,92.6,107,94.3,92.9,95.9,41.6,% Enzyme Activity (relative to DMSO controls) ([1]; 500 nM): 76.29%; % Enzyme Activity (relative to DMSO controls) ([2]; 500 nM): 107.62%; % Enzyme Activity (relative to DMSO controls) ([3]; 500 nM): 75.20%; % Enzyme Activity (relative to DMSO controls) ([4]; 500 nM): 94.23%; % Enzyme Activity (relative to DMSO controls) ([5]; 500 nM): 91.55%; % Enzyme Activity (relative to DMSO controls) ([6]; 500 nM): 106.28%; % Enzyme Activity (relative to DMSO controls) ([7]; 500 nM): 94.16%; % Enzyme Activity (relative to DMSO controls) ([8]; 500 nM): 90.66%; % Enzyme Activity (relative to DMSO controls) ([9]; 500 nM): 93.77%; % Enzyme Activity (relative to DMSO controls) ([10]; 500 nM): 41.19%
